Test system: genotype A, "Long" strain RSV
Test: RSV-A assay (CPE, ATPlite readout in Hep-2 cells)
Format: cell-based
Settings: human respiratory syncytial virus, HEp-2, Hep-2 cells, genotype A "Long" strain RSV, MOI 0.1; read-out: Human RSV-A (“Long” strain) EC50
Procedure, shortened: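 Hep-2 cells (8,000/well) received 2-fold serial compound dilutions in duplicate and RSV Long strain at MOI 0.1. After 5 days' incubation, cell health was read as ATP by ATPlite luminescence, with virus-only and uninfected controls defining max and minimum CPE; EC50 reported.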

| EC50 [nM] | Structure (SMILES) |
| --- | --- |
| < 200 | COc1cc(C(=O)NC[C@](O)(c2cc3c(c(-c4ccc(F)cc4)n2)OC[C@]3(C)C(N)=O)C(F)(F)F)ccc1-c1ncc(C)o1 [Example 182] |
| < 200 | COc1cc(C(=O)NC[C@](O)(c2cc3c(c(-c4ccc(F)cc4)n2)OC[C@]3(C)C(N)=O)C(F)(F)F)ccc1-c1cnoc1 [Example 184] |
| < 200 | COc1cc(C(=O)NC[C@](O)(c2cc3c(c(-c4ccc(F)cc4)n2)OC[C@]3(C)C(N)=O)C(F)(F)F)ccc1-c1cnoc1C [Example 185] |
| < 200 | COc1cc(C(=O)NC[C@](O)(c2cc3c(c(-c4ccc(F)cc4)n2)OC[C@]3(C)C(N)=O)C(F)(F)F)ccc1-c1conc1C [Example 186] |
| < 200 | COc1cc(C(=O)NC[C@](O)(c2cc3c(c(-c4ccc(F)cc4)n2)OC[C@]3(C)C(N)=O)C(F)(F)F)ccc1-c1cnco1 [Example 187] |
| > 200 | COc1cc(C(=O)NC[C@](O)(c2cc3c(c(-c4ccc(F)cc4)n2)OC[C@]3(C)C(N)=O)C(F)(F)F)ccc1OCCN1CCOCC1 [Example 188] |
| > 200 | COc1cc(C(=O)NC[C@](O)(c2cc3c(c(-c4ccc(F)cc4)n2)OC[C@]3(C)C(N)=O)C(F)(F)F)ccc1OCCN1CCCCC1 [Example 189] |
| > 200 | COc1cc(C(=O)NC[C@](O)(c2cc3c(c(-c4ccc(F)cc4)n2)OC[C@]3(C)C(N)=O)C(F)(F)F)ccc1OCCN1CCN(C)CC1 [Example 190] |
| > 200 | COc1cc(C(=O)NC[C@](O)(c2cc3c(c(-c4ccc(F)cc4)n2)OC[C@]3(C)C(N)=O)C(F)(F)F)ccc1-c1coc(C)n1 [Example 197] |
| < 200 | C[C@]1(C(N)=O)COc2c1cc([C@@](O)(CNC(=O)c1ccc(-c3cocn3)c(OC3CC3)c1)C(F)(F)F)nc2-c1ccc(F)cc1 [Example 198] |
| < 200 | COc1cc(C(=O)NC[C@](O)(c2cc3c(c(-c4ccc(F)cc4)n2)OC[C@]3(C)C(N)=O)C(F)(F)F)ccc1-c1cocn1 [Example 199] |
| < 200 | COc1cc(C(=O)NC[C@](O)(c2cc3c(c(-c4ccc(F)cc4)n2)OC[C@]3(C)C(N)=O)C(F)(F)F)ccc1-c1nnco1 [Example 200] |
| < 200 | COc1cc(C(=O)NC[C@](O)(c2cc3c(c(-c4ccc(F)cc4)n2)OC[C@]3(C)C(N)=O)C(F)(F)F)ccc1-c1nncs1 [Example 201] |
| > 200 | C[C@@H](O)COc1ccc(C(=O)NC[C@](O)(c2cc3c(c(-c4ccc(F)cc4)n2)OC[C@]3(C)C(N)=O)C(F)(F)F)cc1-c1cncnc1 [Example 203] |
| > 200 | C[C@@H](O)COc1ccc(C(=O)NC[C@](O)(c2cc3c(c(-c4ccc(F)cc4)n2)OC[C@]3(C)C(N)=O)C(F)(F)F)cc1-c1cccnc1 [Example 204] |
| < 200 | C[C@]1(C(N)=O)COc2c1cc([C@@](O)(CNC(=O)c1cc(Cl)c3ncccc3c1)C(F)(F)F)nc2-c1ccc(F)c(Cl)c1 [Example 220] |
| > 200 | COc1cc(C(=O)NC[C@](O)(c2cc3c(c(-c4ccc(F)cc4)n2)OC[C@]3(C)C(N)=O)C(F)(F)F)cc2ccc(C(F)(F)F)nc12 [Example 224] |
| > 200 | C[C@]1(C(N)=O)COc2c1cc([C@@](O)(CNC(=O)c1cc(OC3CC3)c3nc(C(F)(F)F)ccc3c1)C(F)(F)F)nc2-c1ccc(F)cc1 [Example 225] |
| < 200 | Cc1ccc2cc(C(=O)NC[C@](O)(c3cc4c(c(-c5ccc(F)cc5)n3)OC[C@]4(C)C(N)=O)C(F)(F)F)cc(O)c2n1 [Example 226] |

| EC50 [nM] | Structure (SMILES) |
| --- | --- |
| > 200 | C[C@]1(C(N)=O)COc2c1cc([C@@](O)(CNC(=O)c1cc(O)c3nc(C(F)(F)F)ccc3c1)C(F)(F)F)nc2-c1ccc(F)cc1 [Example 227] |
| > 200 | Cc1nnc2ccc(C(=O)NC[C@](O)(c3cc4c(c(-c5ccc(F)cc5)n3)OC[C@]4(C)C(N)=O)C(F)(F)F)cc2c1C [Example 231] |
| > 200 | C[C@]1(C(N)=O)COc2c1cc([C@@](O)(CNC(=O)c1ccc3cccnc3c1)C(F)(F)F)nc2-c1ccc(F)cc1 [Example 233] |
| > 200 | C[C@]1(C(N)=O)COc2c1cc([C@@](O)(CNC(=O)c1ccc3nccnc3c1)C(F)(F)F)nc2-c1ccc(F)cc1 [Example 234] |
| > 200 | C[C@]1(C(N)=O)COc2c1cc([C@@](O)(CNC(=O)c1cc3ccccc3cn1)C(F)(F)F)nc2-c1ccc(F)cc1 [Example 236] |
| > 200 | C[C@]1(C(N)=O)COc2c1cc([C@@](O)(CNC(=O)c1cnc3ccccc3n1)C(F)(F)F)nc2-c1ccc(F)cc1 [Example 237] |
| > 200 | C[C@]1(C(N)=O)COc2c1cc([C@@](O)(CNC(=O)c1ccc3ncccc3n1)C(F)(F)F)nc2-c1ccc(F)cc1 [Example 238] |
| < 200 | C[C@]1(C(N)=O)COc2c1cc([C@@](O)(CNC(=O)c1cnc3ncccc3c1)C(F)(F)F)nc2-c1ccc(F)cc1 [Example 239] |
| > 200 | C[C@]1(C(N)=O)COc2c1cc([C@@](O)(CNC(=O)c1ccc3ncccc3c1Cl)C(F)(F)F)nc2-c1ccc(F)cc1 [Example 240] |
| > 200 | C[C@]1(C(N)=O)COc2c1cc([C@@](O)(CNC(=O)c1cc3cccnc3cc1Cl)C(F)(F)F)nc2-c1ccc(F)cc1 [Example 241] |
| > 200 | C[C@]1(C(N)=O)COc2c1cc([C@@](O)(CNC(=O)c1cnc3cccnc3c1)C(F)(F)F)nc2-c1ccc(F)cc1 [Example 242] |
| > 200 | C[C@]1(C(N)=O)COc2c1cc([C@@](O)(CNC(=O)c1ccc3ccccc3n1)C(F)(F)F)nc2-c1ccc(F)cc1 [Example 243] |
| > 200 | C[C@]1(C(N)=O)COc2c1cc([C@@](O)(CNC(=O)c1cnc3cnccc3c1)C(F)(F)F)nc2-c1ccc(F)cc1 [Example 244] |
| < 200 | C[C@]1(C(N)=O)COc2c1cc([C@@](O)(CNC(=O)c1ccc3c(Cl)nccc3c1)C(F)(F)F)nc2-c1ccc(F)cc1 [Example 247] |
| < 200 | C[C@]1(C(N)=O)COc2c1cc([C@@](O)(CNC(=O)c1ccc3ncncc3c1)C(F)(F)F)nc2-c1ccc(F)cc1 [Example 248] |
| < 200 | COc1cc(C(=O)NC[C@](O)(c2cc3c(c(-c4ccc(F)cc4)n2)OC[C@]3(C)C(N)=O)C2CC2)cc2cccnc12 [Example 249] |
| > 200 | Cc1ccnc2c(O)cc(C(=O)NC[C@](O)(c3cc4c(c(-c5ccc(F)cc5)n3)OC[C@]4(C)C(N)=O)C(F)(F)F)cc12 [Example 250] |
| > 200 | COc1cc(C(=O)NC[C@](O)(c2cc3c(c(-c4ccc(F)cc4)n2)OC[C@]3(C)C(N)=O)C(F)(F)F)cc2c(C)ccnc12 [Example 251] |
| < 200 | Cc1cnc2c(O)cc(C(=O)NC[C@](O)(c3cc4c(c(-c5ccc(F)c(Cl)c5)n3)OC[C@]4(C)C(N)=O)C(F)(F)F)cc2c1 [Example 253] |

| EC50 [nM] | Structure (SMILES) |
| --- | --- |
| < 200 | Cc1cnc2c(O)cc(C(=O)NC[C@](O)(c3cc4c(c(-c5ccc(F)cc5)n3)OC[C@]4(C)C(N)=O)C3CC3)cc2c1 [Example 254] |
| < 200 | COc1cc(C(=O)NC[C@](O)(c2cc3c(c(-c4ccc(F)c(Cl)c4)n2)OC[C@]3(C)C(N)=O)C2CC2)cc2cc(C)cnc12 [Example 258] |
| < 200 | COc1cc(C(=O)NC[C@](O)(c2cc3c(c(-c4ccc(C)cc4)n2)OC[C@]3(C)C(N)=O)C(F)(F)F)cc2cc(C)cnc12 [Example 259] |
| < 200 | COc1cc(C(=O)NC[C@](O)(c2cc3c(c(-c4ccc(Cl)c(F)c4)n2)OC[C@]3(C)C(N)=O)C(F)(F)F)cc2cc(C)cnc12 [Example 260] |
| < 200 | CCc1cnc2c(O)cc(C(=O)NC[C@](O)(c3cc4c(c(-c5ccc(F)cc5)n3)OC[C@]4(C)C(N)=O)C(F)(F)F)cc2c1 [Example 261] |
| < 200 | Cc1cnc2c(OC3CC3)cc(C(=O)NC[C@](O)(c3cc4c(c(-c5ccc(F)cc5)n3)OC[C@]4(C)C(N)=O)C(F)(F)F)cc2c1 [Example 263] |
| < 200 | COc1cc(C(=O)NC[C@](C)(O)c2cc3c(c(-c4ccc(F)cc4)n2)OC[C@]3(C)C(N)=O)ccc1OC[C@@H](C)O [Example 264] |
| < 200 | C[C@@H](O)COc1ccc(C(=O)NC[C@](C)(O)c2cc3c(c(-c4ccc(F)cc4)n2)OC[C@]3(C)C(N)=O)cc1OC1CC1 [Example 267] |
| < 200 | C[C@]1(C(N)=O)COc2c1cc([C@@](O)(CNC(=O)c1ccc3ccncc3c1)C(F)(F)F)nc2-c1ccc(F)cc1 [Example 268] |
| > 200 | CC(C)(O)COc1cc(C(=O)NC[C@](O)(c2cc3c(c(-c4ccc(F)cc4)n2)OC[C@]3(C)C(N)=O)C(F)(F)F)cc2cccnc12 [Example 270] |
| > 200 | CCc1ccc2cc(C(=O)NC[C@](O)(c3cc4c(c(-c5ccc(F)cc5)n3)OC[C@]4(C)C(N)=O)C(F)(F)F)cc(O)c2n1 [Example 272] |
| < 200 | CCc1ccc2cc(C(=O)NC[C@](O)(c3cc4c(c(-c5ccc(F)cc5)n3)OC[C@]4(C)C(N)=O)C(F)(F)F)cc(OC)c2n1 [Example 273] |
| < 200 | C[C@]1(C(N)=O)COc2c1cc([C@@](O)(CNC(=O)c1cc(C#N)c3ncccc3c1)C(F)(F)F)nc2-c1ccc(F)cc1 [Example 274] |
| < 200 | CNC(=O)[C@@]1(C)COc2c1cc([C@@](O)(CNC(=O)c1cc(OCC(N)=O)c3ncccc3c1)C(F)(F)F)nc2-c1ccc(F)cc1 [Example 276] |
| < 200 | C[C@]1(C(N)=O)COc2c1cc([C@@](O)(CNC(=O)c1cc(OCCF)c3ncccc3c1)C(F)(F)F)nc2-c1ccc(F)cc1 [Example 277] |
| < 200 | C[C@]1(C(N)=O)COc2c1cc([C@@](O)(CNC(=O)c1cc(OC(F)(F)F)c3ncccc3c1)C(F)(F)F)nc2-c1ccc(F)cc1 [Example 278] |
| < 200 | C[C@]1(C(N)=O)COc2c1cc([C@@](O)(CNC(=O)c1cc(N)c3ncccc3c1)C(F)(F)F)nc2-c1ccc(F)cc1 [Example 279] |
| < 200 | C[C@]1(C(N)=O)COc2c1cc([C@@](O)(CNC(=O)c1cc(OC3CC3)c3ncccc3c1)C(F)(F)F)nc2-c1ccc(Cl)c(F)c1 [Example 282] |

| Structure (SMILES) | EC50 [nM] |
| --- | --- |
| C[C@]1(C(N)=O)COc2c1cc([C@@](O)(CNC(=O)c1cc(O)c3ncccc3c1)C(F)(F)F)nc2-c1ccc(F)cc1 [Example 229] | > 200 |

— patent publication US11505558B1, “Antiviral heterocyclic compounds” (Enanta Pharmaceuticals, Inc., priority 2019, dated 2022)
